Source: the NIST ThermoML archive (doi:10.1021/je400056z)

Assay: xn = mol fraction of the nth substance listed
Settings: Liquid, Vibrating tube method

CCCCCCC [heptane] + O=C=O
Settings | mass density [kg/m3]
332.8 K, 25003 kPa, x2 = 0.0218 | 677.55
332.83 K, 6993 kPa, x2 = 0.5085 | 682.63
332.83 K, 8019 kPa, x2 = 0.5085 | 685.45
332.83 K, 9012 kPa, x2 = 0.5085 | 688
332.83 K, 10004 kPa, x2 = 0.5085 | 690.4
332.83 K, 11006 kPa, x2 = 0.5085 | 692.81
332.83 K, 12005 kPa, x2 = 0.5085 | 695.15
332.83 K, 13003 kPa, x2 = 0.5085 | 697.36
332.83 K, 13999 kPa, x2 = 0.5085 | 699.53
332.83 K, 15005 kPa, x2 = 0.5085 | 701.72
332.83 K, 16003 kPa, x2 = 0.5085 | 703.82
332.83 K, 17000 kPa, x2 = 0.5085 | 706.1
332.83 K, 18006 kPa, x2 = 0.5085 | 708.26
332.83 K, 19000 kPa, x2 = 0.5085 | 710.51
332.83 K, 20000 kPa, x2 = 0.5085 | 712.6
332.83 K, 20991 kPa, x2 = 0.5085 | 714.75
332.83 K, 22000 kPa, x2 = 0.5085 | 716.83
332.83 K, 23003 kPa, x2 = 0.5085 | 718.86
332.83 K, 24000 kPa, x2 = 0.5085 | 720.81
332.83 K, 25002 kPa, x2 = 0.5085 | 722.78
342.59 K, 5015 kPa, x2 = 0.3148 | 660.43
342.59 K, 6006 kPa, x2 = 0.3148 | 662.35
342.59 K, 7008 kPa, x2 = 0.3148 | 664.12
342.59 K, 8003 kPa, x2 = 0.3148 | 665.96
342.59 K, 9023 kPa, x2 = 0.3148 | 667.75
342.59 K, 10000 kPa, x2 = 0.3148 | 669.58
342.59 K, 11004 kPa, x2 = 0.3148 | 671.39
342.59 K, 11999 kPa, x2 = 0.7514 | 668.27
342.59 K, 12012 kPa, x2 = 0.3148 | 673.16
342.59 K, 13009 kPa, x2 = 0.3148 | 674.92
342.59 K, 13078 kPa, x2 = 0.7514 | 677.39
342.59 K, 14002 kPa, x2 = 0.7514 | 684.02
342.59 K, 14006 kPa, x2 = 0.3148 | 676.58
342.59 K, 14980 kPa, x2 = 0.7514 | 690.44
342.59 K, 15007 kPa, x2 = 0.3148 | 678.19
342.59 K, 16000 kPa, x2 = 0.3148 | 679.78
342.59 K, 16000 kPa, x2 = 0.7514 | 696.41
342.59 K, 17006 kPa, x2 = 0.7514 | 701.98
342.59 K, 17008 kPa, x2 = 0.3148 | 681.37
342.59 K, 18003 kPa, x2 = 0.7514 | 707.17
342.59 K, 18004 kPa, x2 = 0.3148 | 682.88
342.59 K, 18988 kPa, x2 = 0.7514 | 711.38
342.59 K, 19000 kPa, x2 = 0.3148 | 684.38
342.59 K, 20000 kPa, x2 = 0.3148 | 685.86
342.59 K, 20006 kPa, x2 = 0.7514 | 716.85
342.59 K, 21010 kPa, x2 = 0.7514 | 721.31
342.59 K, 21018 kPa, x2 = 0.3148 | 687.3
342.59 K, 22004 kPa, x2 = 0.7514 | 725.37
342.59 K, 22006 kPa, x2 = 0.3148 | 688.68
342.59 K, 23009 kPa, x2 = 0.7514 | 729.36
342.59 K, 23014 kPa, x2 = 0.3148 | 690.13
342.59 K, 24006 kPa, x2 = 0.7514 | 733.15
342.59 K, 24010 kPa, x2 = 0.3148 | 691.48
342.59 K, 24951 kPa, x2 = 0.7514 | 736.71
342.59 K, 25016 kPa, x2 = 0.3148 | 692.87
342.68 K, 4004 kPa, x2 = 0.0218 | 646.95
342.68 K, 5003 kPa, x2 = 0.0218 | 648.26
342.68 K, 6004 kPa, x2 = 0.0218 | 649.55
342.68 K, 7009 kPa, x2 = 0.0218 | 650.86
342.68 K, 7996 kPa, x2 = 0.0218 | 652.09
342.68 K, 9017 kPa, x2 = 0.0218 | 653.32
342.68 K, 9997 kPa, x2 = 0.0218 | 654.54
342.68 K, 11003 kPa, x2 = 0.0218 | 655.71
342.68 K, 11998 kPa, x2 = 0.0218 | 656.85
342.68 K, 13010 kPa, x2 = 0.0218 | 657.99
342.68 K, 14002 kPa, x2 = 0.0218 | 659.11
342.68 K, 15008 kPa, x2 = 0.0218 | 660.22
342.68 K, 16006 kPa, x2 = 0.0218 | 661.28
342.68 K, 17003 kPa, x2 = 0.0218 | 662.36
342.68 K, 18003 kPa, x2 = 0.0218 | 663.38
342.68 K, 19002 kPa, x2 = 0.0218 | 664.4
342.68 K, 20005 kPa, x2 = 0.0218 | 665.4
342.68 K, 21007 kPa, x2 = 0.0218 | 666.43
342.68 K, 22003 kPa, x2 = 0.0218 | 667.43
342.68 K, 23010 kPa, x2 = 0.0218 | 668.42
342.68 K, 24005 kPa, x2 = 0.0218 | 669.41
342.68 K, 25003 kPa, x2 = 0.0218 | 670.37
342.71 K, 13106 kPa, x2 = 0.9496 | 500.65
342.71 K, 13985 kPa, x2 = 0.9496 | 541.93
342.71 K, 15012 kPa, x2 = 0.9496 | 579.95
342.71 K, 16000 kPa, x2 = 0.9496 | 609.5
342.71 K, 17009 kPa, x2 = 0.9496 | 634.13
342.71 K, 17984 kPa, x2 = 0.9496 | 654.42
342.71 K, 18996 kPa, x2 = 0.9496 | 672.31
342.71 K, 19994 kPa, x2 = 0.9496 | 687.85
342.71 K, 20999 kPa, x2 = 0.9496 | 701.79
342.71 K, 22001 kPa, x2 = 0.9496 | 714.18
342.71 K, 23009 kPa, x2 = 0.9496 | 725.67
342.71 K, 23985 kPa, x2 = 0.9496 | 735.74
342.71 K, 24518 kPa, x2 = 0.9496 | 740.87
342.73 K, 8002 kPa, x2 = 0.5085 | 670.04
342.73 K, 9011 kPa, x2 = 0.5085 | 673.34
342.73 K, 10003 kPa, x2 = 0.5085 | 676.47
342.73 K, 11006 kPa, x2 = 0.5085 | 679.46
342.73 K, 12005 kPa, x2 = 0.5085 | 682.3
342.73 K, 13011 kPa, x2 = 0.5085 | 685.03
342.73 K, 14001 kPa, x2 = 0.5085 | 687.62
342.73 K, 15001 kPa, x2 = 0.5085 | 690.13
342.73 K, 16006 kPa, x2 = 0.5085 | 692.58
342.73 K, 17007 kPa, x2 = 0.5085 | 694.92
342.73 K, 17999 kPa, x2 = 0.5085 | 697.18
342.73 K, 19004 kPa, x2 = 0.5085 | 699.4
342.73 K, 20003 kPa, x2 = 0.5085 | 701.54
342.73 K, 21007 kPa, x2 = 0.5085 | 703.69
342.73 K, 22001 kPa, x2 = 0.5085 | 705.73
342.73 K, 23008 kPa, x2 = 0.5085 | 707.8
342.73 K, 23998 kPa, x2 = 0.5085 | 709.81
342.73 K, 25003 kPa, x2 = 0.5085 | 711.79
351.97 K, 7006 kPa, x2 = 0.3148 | 652.07
351.97 K, 8006 kPa, x2 = 0.3148 | 654.34
351.97 K, 9004 kPa, x2 = 0.3148 | 656.45
351.97 K, 10010 kPa, x2 = 0.3148 | 658.6
351.97 K, 11002 kPa, x2 = 0.3148 | 660.62
351.97 K, 12003 kPa, x2 = 0.3148 | 662.65
351.97 K, 13003 kPa, x2 = 0.3148 | 664.59
351.97 K, 14001 kPa, x2 = 0.3148 | 666.48
351.97 K, 15008 kPa, x2 = 0.3148 | 668.29
351.97 K, 15998 kPa, x2 = 0.3148 | 670.12
351.97 K, 17018 kPa, x2 = 0.3148 | 671.87
351.97 K, 17988 kPa, x2 = 0.3148 | 673.47
351.97 K, 19003 kPa, x2 = 0.3148 | 675.21
351.97 K, 20004 kPa, x2 = 0.3148 | 676.85
351.97 K, 21004 kPa, x2 = 0.3148 | 678.45
351.97 K, 22002 kPa, x2 = 0.3148 | 680.02
351.97 K, 22992 kPa, x2 = 0.3148 | 681.54
351.97 K, 23999 kPa, x2 = 0.3148 | 683.05
351.97 K, 25008 kPa, x2 = 0.3148 | 684.53
352.3 K, 12013 kPa, x2 = 0.7514 | 641.2
352.3 K, 13001 kPa, x2 = 0.7514 | 649.87
352.3 K, 14004 kPa, x2 = 0.7514 | 657.71
352.3 K, 15036 kPa, x2 = 0.7514 | 665.3
352.3 K, 16003 kPa, x2 = 0.7514 | 671.66
352.3 K, 17017 kPa, x2 = 0.7514 | 677.97
352.3 K, 18016 kPa, x2 = 0.7514 | 683.63
352.3 K, 18998 kPa, x2 = 0.7514 | 689.01
